Key:
[1] = tested on: MCF7; experiment: Cytotoxicity against human MCF7 cells assessed as inhibition of cell growth incubated for 48 hrs by MTT assay; format: functional, cell-based; settings: MCF7, 48 h
[2] = tested on: A549; experiment: Cytotoxicity against human A549 cells assessed as inhibition of cell growth incubated for 48 hrs by MTT assay; format: functional, cell-based; settings: A549, 48 h
[3] = tested on: MDA-MB-231; experiment: Cytotoxicity against human MDA-MB-231 cells assessed as inhibition of cell growth incubated for 48 hrs by MTT assay; format: functional, cell-based; settings: MDA-MB-231, 48 h
[4] = tested on: Huh-7; experiment: Cytotoxicity against human Huh-7 cells assessed as inhibition of cell growth incubated for 48 hrs by MTT assay; format: functional, cell-based; settings: Huh-7, 48 h
[5] = tested on: HepG2; experiment: Cytotoxicity against human HepG2 cells assessed as inhibition of cell growth incubated for 48 hrs by MTT assay; format: functional, cell-based; settings: HepG2, 48 h
[6] = tested on: A549; experiment: Cytotoxicity against cisplatin-resistant human A549 cells assessed as inhibition of cell growth incubated for 48 hrs by MTT assay; format: functional, cell-based; settings: A549, 48 h
[7] = Selectivity index, ratio of IC50 for human HL7702 cells to IC50 for human HepG2 cells; format: toxicity; settings: HL7702 cells and HepG2 cells, read-out: Ratio IC50
[8] = Antimetastatic activity against human HCC cells xenografted in BALB/c mouse assessed as reduction lung metastatic nodules at 5 mg/kg, iv administered once every 2 days for 14 days; format: functional; settings: 336 h, time 14 day
[9] = Antitumor activity against human HCC cells xenografted in BALB/c mouse assessed as inhibition of tumor weight at 5 mg/kg, iv administered once daily for 7 days; format: functional; settings: 168 h, time 7 day
[10] = tested on: L02; experiment: Cytotoxicity against human HL7702 cells assessed as inhibition of cell growth measured after 24 hrs by MTT assay; format: cell-based; settings: L02, 24 h
[11] = Selectivity index, ratio of IC50 for human HL7702 cells to IC50 for human Huh-7 cells; format: toxicity; settings: HL7702 cells and Huh-7 cells, read-out: Ratio IC50
[12] = Resistance factor, ratio of IC50 for cisplatin-resistant human A549 cells to IC50 for human A549 cells; format: functional
[13] = tested on: Huh-7; experiment: Cytotoxicity against human Huh-7 cells assessed as inhibition of cell growth measured after 24 hrs by MTT assay; format: functional, cell-based; settings: Huh-7, 24 h

SMILES | IC50 [1] | IC50 [2] | IC50 [3] | IC50 [4] | IC50 [5] | IC50 [6] | selectivity ratio [7] | inhibition in vivo at 5 mg/kg [8] | inhibition in vivo at 5 mg/kg [9] | IC50 [10] | selectivity ratio [11] | Ratio IC50 [12] | IC50 [13]
NCCCCNCCCN1C(=O)c2cccc3cc(NC(=O)CN)cc(c23)C1=O | > 30 µM | > 30 µM | > 30 µM | > 30 µM | > 30 µM | > 30 µM |  |  |  |  |  |  | 
CN(C)CCN1C(=O)c2cccc3cc(N)cc(c23)C1=O [AMONAFIDE] | 10.9 µM | 23.5 µM | 15.2 µM | 8.52 µM |  | 9.56 µM | 1.23 | 55.8% | 46.9% | 11.6 µM | 1.36 | 0.41 | 8.52 µM
